Where two headings read alike, the source gives them in different places.
What was measured:
[1] = test system: normal embryonic lung (MRC-5) cell line; experiment: Cytotoxicity on MRC-5 cell line, MTT assay; format: cell-based; settings: Homo sapiens, MRC5, MRC-5 cells, 48 h incubation
Experimental: Normal embryonic lung MRC-5 cells and neuroblastoma SH-SY5Y cells from the American Type Culture Collection (Manassas, VA, USA) were maintained in DMEM with 10% heat-inactivated FBS and 1% penicillin-streptomycin at 37 °C in humidified air containing 5% carbon dioxide.
Cytotoxicity of 1,2,3-triazole-based sulfonamides was evaluated by using a normal embryonic lung (MRC-5) cell line. The MRC-5 cells were cultured in 96-well microtiter plates (Corning Inc., NY, USA) at 5,000–20,000 cells/well and incubated for 24 h at 37 °C in humidified air containing 5% carbon dioxide. Subsequently, various concentrations of 1,2,3-triazole derivatives, doxorubicin (used as a positive control), and DMSO (used as a negative control) were added and incubated for an additional 48 h. MTT reagent (0.5 mg/mL in medium) was added for cell staining and incubated for 4 h. Then, the remaining formazan was dissolved in DMSO by sonication. The absorbance of the test wavelength of 550 nm and the reference wavelength of 650 nm was analyzed with a microplate reader (Molecular Devices, CA, USA). IC50 of each compound was determined as the concentration of the compound that inhibits cell growth by 50%.

[2] = test system: 6-OHDA-induced SH-SY5Y neuronal cells; experiment: Neuroprotection: cell viability of 6-OHDA-induced SH-SY5Y cells, MTT assay; format: cell-based, Human; settings: then 50 μM 6-OHDA 24 h
Experimental: (§1) Prior to investigations, 1.0 × 10^5 SH-SY5Y neuronal cells/mL were seeded into 96-well plates for 24 h. To determine the optimal concentration of 6-OHDA for inducing neurotoxicity, cells were seeded into 96-well plates for 24 h and treated with various concentrations of 6-OHDA ranging from 25 to 125 μM for another 24 h. For the evaluation of the cytotoxicity of 1,2,3-triazole-based sulfonamide derivatives on SH-SY5Y neuronal cells, the cells were treated with various concentrations (0.1–10 μM) of 1,2,3-triazole-based sulfonamide derivatives for 24 h.^29 To assess the neuroprotective activity of 1,2,3-triazole-based sulfonamide derivatives, the cells were pretreated with various concentrations (0.1–10 μM) of 1,2,3-triazole-based sulfonamide derivatives for 3 h before being treated with 50 μM of 6-OHDA for another 24 h. Cell viability was assessed by incubating with 5 mg/mL of MTT reagent for 3 h at 37 °C, followed by absorbance measurement at 570 nm using a microplate reader (Thermo Fisher Scientific Inc., MA, USA). The viability of SH-SY5Y cells at each concentration was analyzed as a percentage relative to the control group.

[3] = test system: 6-OHDA-induced SH-SY5Y neuronal cells; experiment: Intracellular ROS production, H2DCFDA assay; format: cell-based; settings: Homo sapiens, relative to control; for activity at 5 µM: 5 μM pretreatment 3 h, then 50 μM 6-OHDA 24 h
Experimental: ROS production in SH-SY5Y neuronal cells was investigated using H2DCFDA. 1.0 × 10^5 cells/mL of SH-SY5Y neuronal cells were seeded into 96-well plates for 24 h, and 5 μM of selected 1,2,3-triazole-based sulfonamide derivatives were pretreated for 3 h. Then, neurotoxicity of the cells were induced with 50 μM of 6-OHDA for another 24 h. The neuronal cells with 10 μM H2DCFDA were incubated for 30 min at 37 °C in the dark. The emission and excitation wavelengths of 528 nm and 485 nm, respectively, were measured by using a microplate reader. The measured ROS production was calculated as a percentage relative to the control group.

[4] = test system: 6-OHDA-induced SH-SY5Y neuronal cells; experiment: Cellular leakage of LDH enzyme; format: cell-based, Human; settings: percentage of control; for LDH leakage (LDH activity): 5 μM pretreatment 3 h, then 50 μM 6-OHDA 24 h
Experimental: Leakage of LDH, an enzyme commonly used as an assessment factor to evaluate cellular damage, was measured to determine the protective ability of the compounds against 6-OHDA-induced neuronal damage. 1.0 × 10^5 cells/mL of SH-SY5Y neuronal cells were seeded into 6-well plates for 24 h. The cells were pretreated with 5 μM of 1,2,3-triazole-based sulfonamide derivatives for 3 h before being treated with 50 μM of 6-OHDA for 24 h. The cell culture medium of SH-SY5Y cells was collected, and LDH leakage was evaluated using the LDH assay kit. In the presence of LDH, lactate is converted into pyruvate, resulting in an elevated level of NADH production, which is determined via the change in absorbance at 450 nm. LDH activity was calculated according to the manufacturer’s instructions and shown as a percentage of the control group.

SIRT1 = target: T1, SIRT1 (Homo sapiens, UniProt Q96EB6); experiment: SIRT1 deacetylase activity in SH-SY5Y cell lysate; format: cell-based; settings: for activity at 5 µM: 5 μM pretreatment 3 h, then 50 μM 6-OHDA 24 h, relative to control
T1 construct: endogenous in cells; host or cells: SH-SY5Y
T1 sequence (Q96EB6 1-747): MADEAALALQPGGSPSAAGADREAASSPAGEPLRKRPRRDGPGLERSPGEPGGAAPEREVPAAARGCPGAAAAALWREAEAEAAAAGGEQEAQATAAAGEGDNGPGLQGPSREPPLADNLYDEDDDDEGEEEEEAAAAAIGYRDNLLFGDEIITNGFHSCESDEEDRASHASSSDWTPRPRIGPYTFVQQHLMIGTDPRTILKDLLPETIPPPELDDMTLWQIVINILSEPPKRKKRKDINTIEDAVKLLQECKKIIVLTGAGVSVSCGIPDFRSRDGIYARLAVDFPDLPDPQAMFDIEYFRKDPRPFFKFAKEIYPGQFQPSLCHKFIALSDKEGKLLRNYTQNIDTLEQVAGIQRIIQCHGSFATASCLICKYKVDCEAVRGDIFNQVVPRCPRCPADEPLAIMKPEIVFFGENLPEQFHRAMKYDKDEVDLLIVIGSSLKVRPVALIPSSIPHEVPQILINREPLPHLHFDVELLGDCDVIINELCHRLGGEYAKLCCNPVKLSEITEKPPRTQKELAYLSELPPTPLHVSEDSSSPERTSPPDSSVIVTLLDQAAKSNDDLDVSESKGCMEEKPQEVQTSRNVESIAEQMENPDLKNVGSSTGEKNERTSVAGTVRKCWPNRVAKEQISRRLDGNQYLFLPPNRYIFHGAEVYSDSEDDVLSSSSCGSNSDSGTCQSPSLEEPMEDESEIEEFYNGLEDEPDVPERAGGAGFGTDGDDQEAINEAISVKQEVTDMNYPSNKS
Experimental: SH-SY5Y neuronal cells at 1.0 × 10^5 cells/mL were seeded into 6-well plates for 24 h. Then, the cells were pretreated with 5 μM 1,2,3-triazole-based sulfonamide derivatives for 3 h before neurotoxicity was induced with 50 μM 6-OHDA for another 24 h. The cell culture medium was rinsed off with cold 1X PBS. The cells were incubated at 4 °C with 1X RIPA buffer containing a protease inhibitor for 20 min before being harvested using a cell scraper, followed by centrifugation at 12,000 rpm for 20 min. Protein concentrations were measured using the Bradford protein assay, and SIRT1 activity in the cells was determined following the manufacturer’s instructions. The increase in SIRT1 enzyme activity was measured by fluorescence intensity at an excitation wavelength of 340 nm and an emission wavelength of 445 nm. SIRT1 enzyme activity was statistically analyzed as a percentage relative to the control group.

[5] = Cytotoxicity of 6-OHDA against SH-SY5Y cells, MTT assay; format: cell-based; settings: human, SH-SY5Y neuronal cells, relative to control, read-out: cell viability; for viability at 24 h: 6-OHDA
Experimental: as §1

Q: Which IC50 [1] does the source give for `Cc1ccccc1OCc1cn(-c2ccc(S(=O)(=O)N3CCc4ccccc4C3)cc2)nn1` [4b] here?
A: 19 ± 0.89 µM

Q: What about the “cell viability of 6-OHDA-induced cells” value ([2]; pretreatment 1 μM 3 h) of the same molecule?
A: 88.69 ± 4.465%

Q: And the “cell viability of 6-OHDA-induced cells” value ([2]; pretreatment 5 μM 3 h)?
A: 84.03 ± 1.563%

Q: And the activity at 5 µM [3]?
A: 102 ± 5.64%

Q: What about the “LDH leakage (LDH activity)” value [4] of the same molecule?
A: 113.5 ± 2.954%

Q: What about the activity at 5 µM (SIRT1) of the same molecule?
A: 91.06 ± 0.589%

Q: With `COc1cc2c(cc1OC)CN(S(=O)(=O)c1cccc(-n3cc(COc4cc(=O)oc5ccccc45)nn3)c1)CC2` [4c] as the molecule, how does the IC50 [1] read?
A: > 87 µM

Q: For `Cc1ccccc1OCc1cn(-c2ccc(S(=O)(=O)NCCc3ccccc3)cc2)nn1` [5a], which IC50 [1] is on record?
A: > 111 µM

Q: And the “cell viability of 6-OHDA-induced cells” value ([2]; pretreatment 1 μM 3 h)?
A: 91.89 ± 9.100%

Q: What about the “cell viability of 6-OHDA-induced cells” value ([2]; pretreatment 5 μM 3 h) of the same molecule?
A: 90.88 ± 6.158%

Q: What about the activity at 5 µM [3] of the same molecule?
A: 104 ± 4.42%

Q: And the “LDH leakage (LDH activity)” value [4]?
A: 116.0 ± 2.698%

Q: What about the activity at 5 µM (SIRT1) of the same molecule?
A: 93.7 ± 2.54%

Q: For `CC(=O)c1ccccc1OCc1cn(-c2ccc(S(=O)(=O)N3CCc4ccccc4C3)cc2)nn1` [5b], which IC50 [1] is on record?
A: 15.4 ± 1.1 µM

Q: With `NCCc1cc(O)c(O)cc1O` [6-OHDA, 6-hydroxydopamine] as the molecule, how does the viability at 24 h, 25 μM ([5]; 6-OHDA 25 μM (first of five concentrations 25–125 μM)) read?
A: 90 ± 2.81%

Q: And the viability at 24 h, 125 μM ([5]; 6-OHDA 125 μM (fifth of five concentrations 25–125 μM))?
A: 54.4 ± 3.06%

Q: What about the viability at 24 h ([5]; fourth of five concentrations 25–125 μM) of the same molecule?
A: 56.2 ± 2.37%

Q: And the viability at 24 h ([5]; second of five concentrations 25–125 μM)?
A: 78.5 ± 2.73%

Q: What about the viability at 24 h ([5]; third of five concentrations 25–125 μM) of the same molecule?
A: 61.6 ± 2.44%

Q: And the activity at 50 µM ([3]; 50 μM 6-OHDA alone, 24 h)?
A: 119 ± 4.75%

Q: And the LDH activity ([4]; 50 μM 6-OHDA alone, 24 h)?
A: 132.4 ± 5.089%

Q: And the activity at 50 µM (SIRT1; 24 h, read-out: SIRT1 activity)?
A: 78.8 ± 3.74%

Q: Which IC50 [1] does the source give for `O=c1ccc2ccc(OCc3cn(-c4ccc(S(=O)(=O)NCCc5ccccc5)cc4)nn3)cc2o1` [6a] here?
A: 55.3 ± 1.45 µM

Q: Which IC50 [1] does the source give for `O=c1cc(OCc2cn(-c3ccc(S(=O)(=O)N4CCc5ccccc5C4)cc3)nn2)c2ccccc2o1` [6b] here?
A: > 97.2 µM

Q: For `O=c1cc(OCc2cn(-c3ccc(S(=O)(=O)NCCc4ccccc4)cc3)nn2)c2ccccc2o1` [7a], which IC50 [1] is on record?
A: > 99.5 µM

Q: For `COc1ccc(CCNS(=O)(=O)c2ccc(-n3cc(-c4ccccc4)nn3)cc2)cc1OC` [8a], which IC50 [1] is on record?
A: 78.8 ± 8.11 µM

Q: Which IC50 [1] does the source give for `COc1cccc2c1C(=O)c1c(O)c3c(c(O)c1C2=O)C[C@@](O)(C(=O)CO)C[C@@H]3O[C@H]1C[C@H](N)[C@H](O)[C@H](C)O1` [Doxorubicin, reference compound] here?
A: 2.57 ± 0.36 µM

Q: For `Oc1ccc(/C=C/c2cc(O)cc(O)c2)cc1` [Resveratrol, reference compound], which “cell viability of 6-OHDA-induced cells” value ([2]; pretreatment 0.1 μM (first of four concentrations 0.1–10 μM) 3 h) is on record?
A: 90.01 ± 4.738%

Q: And the “cell viability of 6-OHDA-induced cells” value ([2]; pretreatment 1 μM 3 h)?
A: 88.04 ± 6.146%

Q: What about the “cell viability of 6-OHDA-induced cells” value ([2]; pretreatment 5 μM 3 h) of the same molecule?
A: 92.06 ± 9.069%

Q: And the “cell viability of 6-OHDA-induced cells” value ([2]; pretreatment 10 μM (last of four concentrations 0.1–10 μM) 3 h)?
A: 90.47 ± 9.763%

Q: And the activity at 5 µM [3]?
A: 101 ± 5.5%

Q: And the “LDH leakage (LDH activity)” value [4]?
A: 115.6 ± 2.723%

Q: And the activity at 5 µM (SIRT1)?
A: 92.6 ± 1.06%

Reference: publication PMC12242667, “Attenuation of 6‑OHDA-Induced Neurotoxicity by 1,2,3-Triazole-Based Sulfonamides through SIRT1 Activity” (ACS Omega, 2025)
